pIC50: −log10 of the molar value.
Biological target: T1, full-length human BTK (Homo sapiens, UniProt Q06187)
T1 construct: 2.5× stocks of full-length human BTK (08-080); purchased CarnaBio USA, Inc., Natick, Mass; 08-080
Assay: Assay A: BTK IC50 Enzyme Assay (microfluidic off-chip mobility shift kinase assay)
Type: biochemical
Details: full-length human BTK, kinKDR peptide substrate, incubated 90 min at 27 C; read-out: Assay A (Time Dependent BTK Enzyme Assay IC50)
Protocol: Assay A: BTK IC50 Enzyme Assay
The following describes a microfluidic, off-chip mobility shift kinase assay used to measure inherent potency of compounds against BTK enzyme. Compounds described by embodiments of the present invention were assayed using this protocol and the data from the same is recorded in Table 2 within the column labeled: “Time Dependent BTK Enzyme Assay IC50”.
Stopped reactions were monitored at −2 PSI, −3000 V/−700 V in a LabChip 3000 plate reader from Caliper Life Sciences, a PerkinElmer Company (Hopkinton, Mass.), and the activity was measured by off-chip mobility shift assay measuring the charge/mass difference between substrate and product resulting from peptide phosphorilation. IC50 and efficacy were determined by plotting log [Inhibitor] vs. % Activity in GeneData Screener (Basel, Switzerland). […] I<1 uM and II>1 uM.

T1 sequence (Q06187 whole entry): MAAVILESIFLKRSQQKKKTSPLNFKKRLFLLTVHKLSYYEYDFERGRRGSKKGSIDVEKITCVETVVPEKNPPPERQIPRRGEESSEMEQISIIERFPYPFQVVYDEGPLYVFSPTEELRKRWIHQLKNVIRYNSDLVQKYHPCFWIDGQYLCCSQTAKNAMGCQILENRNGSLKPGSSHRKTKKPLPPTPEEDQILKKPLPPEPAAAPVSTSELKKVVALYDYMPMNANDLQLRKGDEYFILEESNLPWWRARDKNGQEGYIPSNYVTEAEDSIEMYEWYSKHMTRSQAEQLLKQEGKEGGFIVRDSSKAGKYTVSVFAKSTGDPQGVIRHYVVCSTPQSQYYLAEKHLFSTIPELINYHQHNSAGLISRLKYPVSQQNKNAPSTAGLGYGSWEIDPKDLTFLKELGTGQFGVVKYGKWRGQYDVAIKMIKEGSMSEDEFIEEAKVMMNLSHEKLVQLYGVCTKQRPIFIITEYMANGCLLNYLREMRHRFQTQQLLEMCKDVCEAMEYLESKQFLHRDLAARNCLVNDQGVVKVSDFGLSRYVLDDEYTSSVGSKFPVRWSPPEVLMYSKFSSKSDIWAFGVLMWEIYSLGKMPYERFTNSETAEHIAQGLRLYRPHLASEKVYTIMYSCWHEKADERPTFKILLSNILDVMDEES

pIC50 | Compound
6.00 to 7.00 | C=CC(=O)N[C@H]1CCN(c2cc(Oc3ccc(Oc4ccc(C)cc4)cc3)c(C(N)=O)cn2)C1 [Compound 114, (S)-6-(3-acrylamidopyrrolidin-1-yl)-4-(4-(p-tolyloxy)phenoxy)nicotinamide]
6.00 to 7.00 | C=CC(=O)N[C@H]1CCN(c2cc(Oc3cnn(Cc4ccccc4)c3)c(C(N)=O)cn2)C1 [Compound 115]
5.30 to 6.00 | C=CC(=O)N[C@H]1CCN(c2cc(Oc3ccc(C(=O)Nc4ccccc4)cc3)c(C(N)=O)cn2)C1 [Compound 116, (S)-6-(3-acrylamidopyrrolidin-1-yl)-4-(4-(phenylcarbamoyl)phenoxy)nicotinamide]
5.30 to 6.00 | C=CC(=O)N1CCC(c2cc(Oc3ccc(C(=O)Nc4ccccc4)cc3)c(C(N)=O)cn2)C1 (stereo not drawn) [Compound 117]
> 7.00 | C=CC(=O)N1CCC=C(c2cnc(Oc3ccc(Oc4ccccc4)cc3)c(C(N)=O)c2)C1 [Compound 123, 1′-Acryloyl-6-(4-phenoxy-phenoxy)-1′,2′,5′,6′-tetrahydro-[3,3′]bipyridinyl-5-carboxylic acid amide]
> 7.00 | C=CC(=O)N1CCC[C@H](c2cnc(Oc3ccc(Oc4ccccc4)cc3)c(C(N)=O)c2)C1 [Compound 124, (R)-5-(1-acryloylpiperidin-3-yl)-2-(4-phenoxyphenoxy)nicotinamide]
> 7.00 | C=CC(=O)N1CCC[C@@H](c2cnc(Oc3ccc(Oc4ccccc4)cc3)c(C(N)=O)c2)C1 [Compound 125, (S)-5-(1-acryloylpiperidin-3-yl)-2-(4-phenoxyphenoxy)nicotinamide]
> 7.00 | C=CC(=O)N1CCCC(c2cnc(Oc3ccc(Oc4ccccc4)cc3)c(C(N)=O)c2)C1 (stereo not drawn) [Compound 126, 1′-Acryloyl-6-(4-phenoxy-phenoxy)-1′,2′,3′,4′,5′,6′-hexahydro-[3,3′]bipyridinyl-5-carboxylic acid amide]
6.00 to 7.00 | C=CC(=O)N1CCC(c2cnc(Oc3ccc(Oc4ccccc4)cc3)c(C(N)=O)c2)CC1 [Compound 127, 1′-Acryloyl-6-(4-phenoxy-phenoxy)-1′,2′,3′,4′,5′,6′-hexahydro-[3,4′]bipyridinyl-5-carboxylic acid amide]
> 7.00 | C=CC(=O)N1CCn2ncc(-c3cnc(C(N)=O)c(NC(C)=O)c3)c2C1 [Compound 132]
5.30 to 6.00 | C=CC(=O)NC1CCC(c2cnc(C(N)=O)c(NC(C)=O)c2)CC1 (stereo not drawn) [Compound 133]
5.30 to 6.00 | C=CC(=O)N1C[C@@H]2C[C@H]1CN2c1cnc(C(N)=O)c(Oc2ccc(Oc3ccccc3)cc2)n1 [Compound 135, 5-((1S,4S)-5-Acryloyl-2,5-diaza-bicyclo[2.2.1]hept-2-yl)-3-(4-phenoxy-phenoxy)-pyrazine-2-carboxylic acid amide]
< 5.30 | C=CC(=O)N1CCn2ncc(-c3cnc(C(N)=O)cn3)c2C1 [Compound 137]

More lines, now with the values behind:

Compound | pIC50
C=CC(=O)Nc1cccc(-c2ccc(C(N)=O)c(Oc3ccc(Oc4ccccc4)cc3)n2)c1 [Compound 80, 6-(3-acrylamidophenyl)-2-(4-phenoxyphenoxy)nicotinamide] | > 7.00
C=CC(=O)N1CCC(c2ccc(C(N)=O)c(Oc3ccc(Oc4ccc(C)cc4)cc3)n2)C1 (stereo not drawn) [Compound 81, 6-(1-acryloylpyrrolidin-3-yl)-2-(4-(p-tolyloxy)phenoxy)nicotinamide] | > 7.00
C=CC(=O)N[C@H]1CCN(c2ccc(C(N)=O)c(Oc3ccc(Oc4cccc(C(F)(F)F)c4)cc3)n2)C1 [Compound 82, (S)-6-(3-acrylamidopyrrolidin-1-yl)-2-(4-(3-(trifluoromethyl)phenoxy)phenoxy)nicotinamide] | > 7.00
C=CC(=O)N1CCC=C(c2ccc(C(N)=O)c(Oc3ccc(Oc4ccccc4)cc3)n2)C1 [Compound 83, 1′-Acryloyl-6-(4-phenoxy-phenoxy)-1′,2′,5′,6′-tetrahydro-[2,3′]bipyridinyl-5-carboxylic acid amide] | > 7.00
C=CC(=O)NCc1cncc(-c2ccc(C(N)=O)c(Oc3ccc(Oc4ccccc4)cc3)n2)c1 [Compound 84, 5′-(acrylamidomethyl)-6-(4-phenoxyphenoxy)-[2,3′-bipyridine]-5-carboxamide] | > 7.00
C=CC(=O)N[C@H]1CCN(c2ccc(C(N)=O)c(Oc3ccc(Oc4ccc(C)cc4)cc3)n2)C1 [Compound 85, (S)-6-(3-acrylamidopyrrolidin-1-yl)-2-(4-(p-tolyloxy)phenoxy)nicotinamide] | 6.00 to 7.00
NC(=O)c1ccc(C2CCN(C(=O)/C=C/CN3CCN(CCNC(=O)CCCC[C@@H]4SC[C@@H]5NC(=O)N[C@@H]54)CC3)CC2)nc1Oc1ccc(Oc2ccccc2)cc1 [Compound 86, 6-(1-((E)-4-(4-(2-(5-((3aS,4S,6aR)-2-oxohexahydro-1H-thieno[3,4-d]imidazol-4-yl)pentanamido)ethyl)piperazin-1-yl)but-2-enoyl)piperidin-4-yl)-2-(4-phenoxyphenoxy)nicotinamide] | 6.00 to 7.00
C=CC(=O)N1CCCC(c2ccc(C(N)=O)c(Oc3ccc(Oc4ccccc4)cc3)n2)C1 (stereo not drawn) [Compound 87, 1′-Acryloyl-6-(4-phenoxy-phenoxy)-1′,2′,3′,4′,5′,6′-hexahydro-[2,3′]bipyridinyl-5-carboxylic acid amide] | 6.00 to 7.00
C=CC(=O)N1CC=C(c2ccc(C(N)=O)c(Oc3ccc(Oc4ccccc4)cc3)n2)C1 [Compound 88, 6-(1-acryloyl-2,5-dihydro-1H-pyrrol-3-yl)-2-(4-phenoxyphenoxy)nicotinamide] | 6.00 to 7.00
C=CC(=O)NCc1ccc(-c2ccc(C(N)=O)c(Oc3ccc(Oc4ccccc4)cc3)n2)cc1 [Compound 89, 6-(4-(acrylamidomethyl)phenyl)-2-(4-phenoxyphenoxy)nicotinamide] | 6.00 to 7.00
C=CC(=O)N[C@H]1CCN(c2ccc(C(N)=O)c(Oc3ccc(OCc4ccccc4)cc3)n2)C1 [Compound 90, (S)-6-(3-acrylamidopyrrolidin-1-yl)-2-(4-(benzyloxy)phenoxy)nicotinamide] | 6.00 to 7.00
C=CC(=O)N[C@H]1CCN(c2ccc(C(N)=O)c(Oc3cccnc3)n2)C1 [Compound 92, 6-((S)-3-Acryloylamino-pyrrolidin-1-yl)-2-(pyridin-3-yloxy)-nicotinamide] | 6.00 to 7.00
CC(C)=CC(=O)C1CCN(c2ccc(C(N)=O)c(Oc3ccc(Oc4ccccc4)cc3)n2)C1 (stereo not drawn) [Compound 93, 6-[3-(3-Methyl-but-2-enoyl)-pyrrolidin-1-yl]-2-(4-phenoxy-phenoxy)-nicotinamide] | 6.00 to 7.00
C=CC(=O)N[C@H]1CCN(c2ccc(C(N)=O)c(Oc3ccc(NC(=O)c4ccccc4)cc3)n2)C1 [Compound 95, (S)-6-(3-acrylamidopyrrolidin-1-yl)-2-(4-benzamidophenoxy)nicotinamide] | 6.00 to 7.00
C=CC(=O)N[C@H]1CCN(c2ccc(C(N)=O)c(Oc3ccc(C(=O)Nc4ccccc4)cc3)n2)C1 [Compound 96, (S)-6-(3-acrylamidopyrrolidin-1-yl)-2-(4-(phenylcarbamoyl)phenoxy)nicotinamide] | 5.30 to 6.00
C=CC(=O)N[C@H]1CCN(c2ccc(C(N)=O)c(Oc3cnn(Cc4ccccc4)c3)n2)C1 [Compound 97] | 5.30 to 6.00
C=CC(=O)NCc1cccc(-c2ccc(C(N)=O)c(Oc3ccc(Oc4ccccc4)cc3)n2)c1 [Compound 98, 6-(3-(acrylamidomethyl)phenyl)-2-(4-phenoxyphenoxy)nicotinamide] | 5.30 to 6.00
C=CC(=O)N1CCC(c2ccc(C(N)=O)c(Oc3ccc(NC(=O)c4ccccc4)cc3)n2)C1 (stereo not drawn) [Compound 99, 6-(1-acryloylpyrrolidin-3-yl)-2-(4-benzamidophenoxy)nicotinamide] | 5.30 to 6.00
C=CC(=O)N[C@H]1CCN(c2ccc(C(N)=O)c(Oc3ccc(C(=O)N4CCOCC4)cc3)n2)C1 [Compound 101, 6-((S)-3-Acryloylamino-pyrrolidin-1-yl)-2-[4-(morpholine-4-carbonyl)-phenoxy]-nicotinamide] | < 5.30
C=CC(=O)N(C)[C@H]1CCN(c2ccc(C(N)=O)c(Oc3ccc(Oc4ccccc4)cc3)n2)C1 [Compound 107, 6-[(S)-3-(Acryloyl-methyl-amino)-pyrrolidin-1-yl]-2-(4-phenoxy-phenoxy)-nicotinamide] | > 7.00
C=CC(=O)N[C@H]1CCN(c2cc(Oc3ccc(Oc4ccccc4)cc3)c(C(N)=O)cn2)C1 [Compound 109, 6-((S)-3-Acryloylamino-pyrrolidin-1-yl)-4-(4-phenoxy-phenoxy)-nicotinamide] | > 7.00
C=CC(=O)N1CCC(c2cc(Oc3ccc(Oc4ccc(C)cc4)cc3)c(C(N)=O)cn2)C1 (stereo not drawn) [Compound 110, 6-(1-acryloylpyrrolidin-3-yl)-4-(4-(p-tolyloxy)phenoxy)nicotinamide] | > 7.00
C=CC(=O)N1CCC(c2cc(Oc3ccc(OCc4ccccc4)cc3)c(C(N)=O)cn2)C1 (stereo not drawn) [Compound 111, 6-(1-acryloylpyrrolidin-3-yl)-4-(4-(benzyloxy)phenoxy)nicotinamide] | > 7.00
C=CC(=O)N[C@H]1CCN(c2cc(Oc3ccc(OCc4ccccc4)cc3)c(C(N)=O)cn2)C1 [Compound 112, (S)-6-(3-acrylamidopyrrolidin-1-yl)-4-(4-(benzyloxy)phenoxy)nicotinamide] | 6.00 to 7.00
C=CC(=O)N[C@H]1CCN(c2cc(Oc3ccc(Oc4cccc(C#N)c4)cc3)c(C(N)=O)cn2)C1 [Compound 113, (S)-6-(3-acrylamidopyrrolidin-1-yl)-4-(4-(3-cyanophenoxy)phenoxy)nicotinamide] | 6.00 to 7.00
C=CC(=O)N1[C@@H]2CC[C@H]1CC(c1cnc(C(N)=O)cn1)C2 (stereo partly drawn) [Compound 136] | 5.30 to 6.00

Reference: patent US10329270B2, “Heteroaryl compounds as BTK inhibitors and uses thereof” (Merck Patent GmbH, priority 2013, dated 2019)
